{
  "source": "paper PMC4856767",
  "about": "(Cell Research, 2016)",
  "key": {"PXL1^LRR": {"test_system": "PXL1^LRR", "assay": "In vitro GST pull-down, PXL1^LRR", "assay_type": "binding, Arabidopsis", "conditions": "GS4B resin, wash 10 mM Bis-Tris pH 6.0, 100 mM NaCl; SDS-PAGE, Coomassie blue; Figure 1A"}, "PXL2^LRR": {"test_system": "PXL2^LRR", "assay": "In vitro GST pull-down, PXL2^LRR", "assay_type": "binding, Arabidopsis", "conditions": "GS4B resin, wash 10 mM Bis-Tris pH 6.0, 100 mM NaCl; SDS-PAGE, Coomassie blue; Figure 1A"}, "[1]": {"biological_target": "T1, extracellular LRR domain of PXY (PXY^LRR, residues 1-647) (Arabidopsis, UniProt Q9FII5 30-647)", "T1 sequence": "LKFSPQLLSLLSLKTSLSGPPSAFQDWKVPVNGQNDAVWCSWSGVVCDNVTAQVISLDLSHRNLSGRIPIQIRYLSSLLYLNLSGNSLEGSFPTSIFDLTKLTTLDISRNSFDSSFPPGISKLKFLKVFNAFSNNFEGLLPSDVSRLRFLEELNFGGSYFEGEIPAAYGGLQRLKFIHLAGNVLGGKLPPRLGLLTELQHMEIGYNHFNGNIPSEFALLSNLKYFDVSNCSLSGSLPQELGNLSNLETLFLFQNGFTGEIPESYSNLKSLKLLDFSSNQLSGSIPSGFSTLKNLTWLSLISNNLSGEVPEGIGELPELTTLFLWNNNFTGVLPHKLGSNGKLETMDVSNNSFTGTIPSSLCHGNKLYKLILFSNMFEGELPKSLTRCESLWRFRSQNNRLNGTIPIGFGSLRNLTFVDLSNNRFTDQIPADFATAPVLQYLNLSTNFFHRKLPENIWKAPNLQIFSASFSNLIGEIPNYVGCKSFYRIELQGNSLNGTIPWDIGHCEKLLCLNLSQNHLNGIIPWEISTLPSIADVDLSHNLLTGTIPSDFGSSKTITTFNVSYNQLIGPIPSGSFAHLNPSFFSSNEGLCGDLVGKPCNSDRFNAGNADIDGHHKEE", "assay": "pull-down"}, "[2]": {"biological_target": "T1, extracellular LRR domain of PXY …", "assay": "ITC"}},
  "note": "“Also recorded” adds a separate entry of the source. No end group written: not given here.",
  "data": [
    {"molecule": "GST-TDIF: GST tagged-TDIF protein expressed in E. coli strain BL21 (DE3) (HEVPSGPNPISN; also: GST tag, end not given here)", "values": [
      {"measurement": "interaction with PXL1^LRR in pull-down", "setting": "PXL1^LRR", "result": "can pull-down; also recorded: much lower affinities"},
      {"measurement": "interaction with PXL2^LRR in pull-down", "setting": "PXL2^LRR", "result": "can pull-down; also recorded: much lower affinities"}
    ]},
    {"molecule": "HEVPSGPNPISN", "note": "[recombinant GST-TDIF]", "values": [
      {"measurement": "binding result", "setting": "[1]", "result": "binds"}
    ]},
    {"molecule": "REVPSGPNPISN", "note": "[synthetic mutant peptide TDIF^H1R]", "values": [
      {"measurement": "Kd", "setting": "[2]", "result": "~68", "unit": "nM"}
    ]}
  ]
}
